In data set [1] the target is Recombinant human IDO1 (rhIDO1) (Homo sapiens (Human), UniProt P14902). Kind of data set: Enzymatic assay for IDO1 activity. It is filed as biochemical. Conditions: read-out: Isolated IDO1 Enayme Assay IC50. As for the experimental part:
Recombinant human IDO1 (rhIDO1) was expressed and purified from cultures of EC538 strain of E. coli transformed with pREP4 and pQE9-IDO plasmid. Reaction mixes were set up in 384-well microplates containing 50 mM phosphate buffer, 10 mM ascorbic, 10 μM methylene blue, 100 μg/mL catalase, 80 μM TRP, 0.01% Tween 20 (v/v) mixed with rhIDO1 (15 μL) at a final concentration of 9 nM in a total volume of 30 μL assay medium. The plates were incubated at 37° C. for 30 min, and the enzymatic reaction was terminated by adding piperidine (200 mM) and heated at 65° C. for 20 min. Fluorescence intensity was read at λex 400 nm and λem 500 nm. Test compounds were dissolved in 100% DMSO and pre-diluted in assay medium prior to adding rhIDO1. IDO1 inhibition (%) was calculated as
All experiments were carried out in triplicates, and statistical Analyses were conducted in Prism v5 (Graphpad Software, Inc., La Jolla, CA, USA).

Data set [2] can be described thus: MTT cell viability in the cellular IDO1/TDO experiments. It is filed as cell-based. Conditions: mouse, read-out: Cytotoxicity IC50. As for the experimental part: The viability of the cells in each well in the same experiment was determined using the 3-(4,5-dimethylthiazolyl-2-yl)-2,5-diphenyltetrazolium bromide (MTT) colourimetric assay. After the removal of the supernatant for determination of IDO1 inhibition, the cells were incubated with MTT (500 μg/mL) until crystal formation was observed. Plates were centrifuged for 15 min at 2500 g, and then all the supernatant in then wells was discarded. DMSO (100 μL/well) was added to dissolve the crystals and then the absorbance in each well was measured at 570 nm. Cell viability in each well was expressed as a percentage of untreated controls. Triplicate cultures were used for all experiments unless stated otherwise.
The viability of the cells in each well in the same experiment was determined using the 3-(4,5-dimethylthiazolyl-2-yl)-2,5-diphenyltetrazolium bromide (MTT) colourimetric assay.

Data set [3] concerns lung cancer cell line B (cisplatin-sensitive). Nature of the data set: Growth inhibition and cytotoxicity assay (trypan blue), B cells. Type of data set: cell-based. Conditions: Homo sapiens. As for the experimental part:
(§1) In this study 3 different human-derived lung cancer cell lines were exposed to vehicle control (parental cells B, S and A) or long-term incubation with cisplatin (BC, SC and ALC cells). Long-term incubation with cisplatin induced cisplatin-resistance in the BC, SC and ALC cell lines.
(§2) Cells were seeded in 24-well dishes and treated with various concentrations of inhibitors (i.e. Epacadostat or AT-0174). Briefly, the culture media as well as the trypsinized cells were collected and this mixture was centrifuged at 400×g for 5 min. The supernatant was discarded, re-suspended in 1 mL of Hank's buffer, and assayed for live cells and death cells using trypan blue exclusion method.
(§3) Data from in vitro experiments were performed from three separate biological replicates which were isolated and analyzed in technical triplicates. Separate measurements using the two-tailed t-test and the results were expressed as mean±standard deviation.

The test system of data set [4] is lung cancer cell line S (cisplatin-sensitive). Kind of data set: Growth inhibition and cytotoxicity assay (trypan blue), S cells. Type of data set: cell-based. Conditions: Homo sapiens. As for the experimental part: as §1, §2, §3
Data set [5] relates to lung cancer cell line A (cisplatin-sensitive). Nature of the data set: Growth inhibition and cytotoxicity assay (trypan blue), A cells. It is filed as cell-based. As to conditions: Homo sapiens. As for the experimental part: as §1, §2, §3
Data set [6] has as its system lung cancer cell line BC (cisplatin-resistant). Nature of the data set: Growth inhibition and cytotoxicity assay (trypan blue), BC cells. As to conditions: Homo sapiens. It is filed as cell-based. As for the experimental part: as §1, §2, §3
In data set [7] the test system is lung cancer cell line SC (cisplatin-resistant). Kind of data set: Growth inhibition and cytotoxicity assay (trypan blue), SC cells. Type of data set: cell-based. As to conditions: Homo sapiens. As for the experimental part:
as §1, §2, §3

Data set [8] relates to lung cancer cell line ALC (cisplatin-resistant). Kind of data set: Growth inhibition and cytotoxicity assay (trypan blue), ALC cells. Type of data set: cell-based. Conditions: Homo sapiens. As for the experimental part: as §1, §2, §3
For data set [9], the system named is immune cells in LLC tumors. Nature of the data set: Flow cytometry immune cell analysis, LLC tumors. It is filed as in vivo, mouse. As to conditions: AT-0174 170 mg/kg, epacadostat 200 mg/kg P.O. daily. As for the experimental part: LLC or LLC-CR (1×10^6) cells were subcutaneously injected into the flank of C57B6/J male and female mice (5 mice per group, age 6-8 weeks, Jackson laboratory) and allowed to grow for 3 days (average tumor size=50 mm^3) before being treated with the selective IDO1 inhibitor epacadostat at 200 mg/kg daily or with AT-0174 at 170 mg/kg daily (a dual inhibitor of IDO1 and TDO enzymes). Both compounds were administered via oral gavage (P.O.) and diluted with 95% water+5% methylcellulose (0.5%) and stored at −20° C. Compound was prepared every 5 days. Methyl cellulose (95+5%) was used as control (“Veh”). Tumor growth was evaluated every 2 days by measuring tumor volume with calipers according to the following formula: tumor volume=width^2×length×0.5. At the end of the study, mice were sacrificed and the blood, tumor, and lymph nodes were collected and processed for KYN and tryptophan (TRP) measurement and immune cell assessment respectively.
Tumors or lymph nodes were collected from mice and homogenized using syringe plungers. Mesh filters (40 μM) were placed on 15 mL or 50 mL tubes and the tissue suspensions were filtered. Cell filtrates were spun down at 1000 g. Red blood cell lysis buffer (1% […]) was added into the cell pellets and resuspended. Cell pellets were washed using PBS and isolated. Tumors were isolated using EasySep™ Mouse TIL (CD45) Positive Selection Kit (Stemcell Technologies). To detect regulatory T cells (T-regs) or natural killer cells (NKs), EasySep™ Mouse CD25 Regulatory T Cell Positive Selection Kit and EasySep™ Mouse CD49b Positive Selection Kit were used, respectively. Isolated cells were stained according to manufacturer's instructions. Cells were also fixed with 2% paraformaldehyde and analysis was done using the CytoFLEX Flow Cytometer (Beckman). All flow antibodies were obtained from Biolegend.
On the technique in general: In flow cytometry, cells or beads pass a laser one at a time.

Data set [10] deals with cisplatin-resistant LLC tumors. Kind of data set: Survival of mice with cisplatin-resistant LLC tumors. It is filed as in vivo, mouse. Conditions: for First Death / Maximal Survival / Median Survival Time: LLC-CR, C57B6/J mice, epacadostat 200 mg/kg, AT-0174 170 mg/kg P.O., anti-PD-1 10 mg/kg i.p. every 3 days. As for the experimental part: To investigate the synergy of immune response on tumors between the dual IDO1/TDO inhibitor AT-0174 and an immune checkpoint inhibitor, the compound was tested in mice with cisplatin-resistant lung cancer tumors with and without with anti-PD1 antibody co-treatment.
LLC-CR (1×10^6) cells were subcutaneously injected into the flank of C57B6/J mice (6 mice per group, age 8 weeks) and allowed to grow for 3 days (average tumor size=50 mm^3) before being treated with IDO1 inhibitor epacadostat at 200 mg/kg daily (a supra-maximal dose) or with AT-0174 at 170 mg/kg. Both compounds were administered via oral gavage (P.O.) in 95% water+5% methylcellulose (0.5%). Anti-mouse PD-1 MAb clone RMPi-14 was used as checkpoint inhibitor and administered via intraperitoneal injection (i.p.) at a dose of 10 mg/kg every 3 days.

The text below walks through data of patent US20250186410A1, “DUAL INHIBITORS OF TRYPTOPHAN DIOXYGENASES (IDO1 AND TDO) AND THEIR USE IN THERAPY” (ANTIDO THERAPEUTICS INTERNATIONAL SÀRL, priority 2022, published 2025).

Molecules are shown by their SMILES.

Sequence of Recombinant human IDO1 (rhIDO1) (P14902 whole entry): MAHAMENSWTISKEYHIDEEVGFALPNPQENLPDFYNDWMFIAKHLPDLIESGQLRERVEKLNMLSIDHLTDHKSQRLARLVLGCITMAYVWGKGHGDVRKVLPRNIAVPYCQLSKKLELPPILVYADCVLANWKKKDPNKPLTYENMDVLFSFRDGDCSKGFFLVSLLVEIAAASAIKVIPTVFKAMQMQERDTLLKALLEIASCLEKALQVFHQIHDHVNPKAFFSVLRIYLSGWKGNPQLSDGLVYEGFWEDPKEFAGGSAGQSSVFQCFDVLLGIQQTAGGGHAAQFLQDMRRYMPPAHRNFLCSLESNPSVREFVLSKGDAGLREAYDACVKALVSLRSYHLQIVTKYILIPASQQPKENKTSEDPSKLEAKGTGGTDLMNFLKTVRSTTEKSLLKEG

The term IC50 denotes the concentration that gives 50% inhibition. The term viability denotes a per cent measure of how many cells are alive, often set against a control. Lower therefore signals a greater loss of cells. Take `Nc1noc2nc(Cl)c(F)cc12` [Compound 66, 6-Chloro-5-fluoroisoxazolo[5,4-b]pyridin-3-amine]: the IC50 in data set [1] was less than 1000 nM. In addition, the half-inhibitory concentration (IC50) at 24 h in [2] is greater than 100 µM. For the same compound, the viability at 12.5 µM in data set [3] (12.5 μM AT-0174) was 84.8 ± 11.3%; in data set [4] (12.5 μM AT-0174), 78 ± 7.1%; in data set [5] (12.5 μM AT-0174) it was 92.8 ± 8.5%; in data set [6] (12.5 μM AT-0174), 78.8 ± 6.4%; in [7] (12.5 μM AT-0174), 65.7 ± 6.4%; in data set [8] (12.5 μM AT-0174) it was 76.7 ± 4.2%. Further, the viability at 25 µM in data set [3] (25.0 μM AT-0174) turned out to be 97.9 ± 2.1%; in data set [4] (25.0 μM AT-0174) it was 96.8 ± 19.1%; in [5] (25.0 μM AT-0174), 75.1 ± 14.1%; in data set [6] (25.0 μM AT-0174), 65.3 ± 0.7%; in data set [7] (25.0 μM AT-0174) it was 68.1 ± 2.1%; in [8] (25.0 μM AT-0174), 62.5 ± 4.9%. For the same compound, the viability at 50 µM in data set [3] (50.0 μM AT-0174) is 92.2 ± 15.6%; in [4] (50.0 μM AT-0174) it was 70.2 ± 14%; in data set [5] (50.0 μM AT-0174) it was 74.4 ± 7.1%; in data set [6] (50.0 μM AT-0174) it was 59.9 ± 4.9%; in data set [7] (50.0 μM AT-0174) it was 70 ± 2.1%; in data set [8] (50.0 μM AT-0174) it was 67.3 ± 13.4%. For the same compound, the “CD3^+ CD8^+ T-Effector” value in [9] is given as 5.38 ± 0.79. For the same compound, the “CD3^+ CD49^+ NKG2D^+ NK Cells” value in data set [9] was determined as 3.58 ± 0.70. Moreover, the “CD4^+ CD25^+ FoxP3^+ T-regs” value in data set [9] stood at 10.05 ± 0.79. The “effect on survival” value in [10] (LLC-CR mice, given alone) was “increased survival to a greater extent than the selective agent”. Also, the “First Death” value in data set [10] worked out at 36 days. Also, the “Maximal Survival” value in [10] is given as 43 days. For the same compound, in [10], the “Median Survival Time” value is 36 days.
For the compound `NS(=O)(=O)NCCNc1nonc1C(=NO)Nc1ccc(F)c(Br)c1` [Epacadostat, epacadostat, reference compound], in data set [9], the “CD3^+ CD8^+ T-Effector” value stood at 5.16 ± 0.65, the “CD3^+ CD49^+ NKG2D^+ NK Cells” value was 2.66 ± 0.57 and the “CD4^+ CD25^+ FoxP3^+ T-regs” value turned out to be 13.27 ± 0.83. Besides, in [10], the “First Death” value turned out to be 24 days, the “Maximal Survival” value was 35 days and the “Median Survival Time” value came to 25 days.
